# In ChEMBL document CHEMBL3507680, “University of Dundee, Gates Library screen for HepG2 cell viability”:
# Assay: Human HepG2 cell viability assay in 384 well format
# Type: toxicity, cell-based
# Set-up: dose 125 nL, time 70.5 hour; cytotoxicity at 70.5 h: concentration not given beside the values
# Details: HepG2 cells, read-out: Inhibition
row,Compound,cytotoxicity at 70.5 h [%]
1,c1ccc(COC[C@@]23CCC[C@@H]2CN(Cc2ccccn2)C3)nc1,0.536
2,CC(C)n1cc(N2Cc3nc(N4CCOCC4)ncc3C2=O)cn1,15.4
3,O=C(Cc1ccncc1)N1C[C@H]2CC[C@@H]1CN(Cc1cccnc1)C2,8.28
4,Cc1ccc2c(ccn2CCC(=O)N2CCC(C(N)=O)CC2)c1,-21.3
5,CC(C)=CCN1CCC2(CC1)c1ccccc1[C@@H](N1CCSCC1)[C@@H]2O,-4.97
6,O=C(C1CNCCN1C(=O)CCOc1ccccc1)N1CCOCC1 (centres undefined),4.76
7,Cc1noc(CCCc2nc(C3CCOC3)no2)n1 (centres undefined),-18.7
8,CC(C)CNC(=O)C1=NOC2(CCN(Cc3cccc(C#N)c3)C2)C1 (centres undefined),-1.8
9,Cc1nnc2n1CCN(Cc1ncc(-c3ccccc3)o1)C2,-9.8
10,CCOCC(O)CN1CCN(C(=O)C2CC2)CC1 (centres undefined),-13.7
11,CC(C)Oc1cccc(C(=O)C2CCCN(C(=O)c3ccoc3)C2)c1 (centres undefined),-9.57
12,COc1ccc(OC(F)F)c(NCC(=O)NCC(=O)N2CCCC2)c1,-7.93
13,CS(=O)(=O)N1CCO[C@@H]2CN(C(=O)c3ccnnc3)C[C@@H]2C1,-2.42
14,CNC(=O)NC(=O)CN(Cc1ccc(C#N)cc1)Cc1cccc(F)c1,-2.77
15,CC(C)n1cnc2c1C(C(=O)N(C)C)N(Cc1ccccc1)CC2 (centres undefined),-3.01
16,CC(C(=O)N1CCc2ccccc2C1)N(C)Cc1cscn1 (centres undefined),-4.2
17,Cc1cc(N(Cc2cccs2)C2CC2)n2nc(C(F)(F)F)nc2n1,-1.76
18,O=C(Nc1ccc(-n2cccn2)cc1)N1CCOCC(O)C1 (centres undefined),-20.9
19,CC(C)c1nccn1-c1nccnc1C1CCCN1Cc1ccccc1 (centres undefined),-6.32
20,CN(C)C(=O)Cn1c(C2CC2)c(CN2CCC(O)CC2)c2cccnc21,12.5
21,CC(C)(CNC(=O)CCCOc1cccc(F)c1)C(N)=O,-14.4
22,CC(C)N1CCO[C@H]2CN(Cc3cc[nH]n3)C[C@H]21,-5.26

row,Compound,cytotoxicity at 70.5 h [%]
1,O=C(Nc1ccccc1)N1C(CO)[C@]2(O)CC[C@H]1CC2 (some centres undefined),15
2,CS(=O)(=O)NCCN1CCCC1c1ccc(Cl)cc1 (centres undefined),12
3,COCCN1CCC(NC(=O)C2(c3cc(C)cc(C)c3)CC2)CC1,-11.3
4,Cc1noc(C2CCN(C(=O)c3ccc(C(F)(F)F)nc3)CC2)n1,-5.24
5,COCc1nc(C(=O)N2CCCC(n3ccnc3)C2)cs1 (centres undefined),-10
6,COc1cccc2c1OCC(NC(=O)NCc1cccs1)C2 (centres undefined),-0.177
7,O=C(NC1CCC(O)CC1)c1cnc2c(cnn2C2CCCC2)c1 (centres undefined),-0.508
8,Cc1cc(=O)c(C(=O)N2CCN(C)c3ccccc3C2)c[nH]1,-9.5
9,CN1Cc2ccccc2CC2(CCN(c3ncccn3)CC2)C1=O,-14.8
10,Cn1ncc2c(N3CCN(CCO)CC3)nc(C3CCCC3)nc21,-14.2
11,Cc1cc(C(=O)N2CCS(=O)(=O)CC2)c(C)o1,-2.07
12,COC(=O)c1ccc(N2CCC(c3ccccc3)CC2)nn1,-8.39
13,c1cc2occc2c(N2CCCC(c3nncn3C3CC3)C2)n1 (centres undefined),17.6
14,CC(C)CCN(C(=O)Nc1cccc(C(=O)N(C)C)c1)C1CC1,-7.58
15,CC(=O)c1cc(C(=O)N2CC[C@@H]3CC[C@H](C2)N3C)c(=O)[nH]c1C,22.4
16,Cc1ncsc1CN(C)C(=O)C(CC(C)C)N1CCCCC1=O (centres undefined),-2.15
17,Cc1cc(-n2cncn2)ccc1C(=O)N(CC(F)(F)F)C(C)C,-7.81
18,Cc1cn2nc(N3CCCC3C(=O)N3CCN(C)CC3)sc2n1 (centres undefined),13.5
19,CC(=O)N(c1ccc(C)cc1)c1nc(CN2CCCC(C)C2)cs1 (centres undefined),12.3
20,O=C(NCC(F)F)c1ccc(S(=O)(=O)NCCc2ccncc2)cc1,-11.1
21,Cc1ccc(CN2CC(C(=O)NC(C)C)C3(CCOCC3)C2)s1 (centres undefined),-11.4
22,CN(CCCNC(=O)Nc1ccc(C#N)cc1)CC(F)(F)F,40.9
